Laboratory results taken from patent publication US7947703B2, “Phenanthridinium derivatives as DNA binding agents” (University Court of the University of Glasgow, priority 2003, dated 2011).
Entries after “also recorded” stand apart in the source; their conditions may differ. Marks after values point to notes of the source that are not given here.

Columns and labels:
[1] = system: Cisplatin resistant cell line MCP1; experiment: growth (tetrazolium dye-based microtitration) cytotoxicity assay, MCP1; format: cell-based, human; details: for IC50: cisplatin-resistant line, 24 hours drug exposure, 3 day recovery, mean±SEM of triplicate plates; for RF2: rapport of the IC50 between A2780 and MCP1, the lower RF the better
Description: (§1) Compounds were tested in a growth assay with a 24 hours drug exposure and a 3 day recovery period. Cell lines used were human ovarian tumour cell line A2780 and 2 Cisplatin resistant derivatives cell lines A27080/cp70 and MCP1. IC50 is the concentration of drug required to reduce the surviving cell number to 50% of that of the control untreated cells. Results are from one experiment and are the mean±SEM of the triplicate plates.
(§2) DIP cytotoxicity was determined by a tetrazolium dye-based microtitration assay. DNA affinity measurements of DIPs were undertaken using Isothermal Titration Calorimetry (ITC).

[2] = system: Cisplatin resistant cell line A2780/cp70; experiment: growth (tetrazolium dye-based microtitration) cytotoxicity assay, A2780/cp70; format: cell-based, human; details: for IC50: cisplatin-resistant line, 24 hours drug exposure, 3 day recovery, mean±SEM of triplicate plates; for RF1: rapport of the IC50 between A2780 and A2780/cp70, the lower RF the better
Description: as §1, §2

[3] = system: human ovarian tumour cell line A2780; experiment: growth (tetrazolium dye-based microtitration) cytotoxicity assay, A2780; format: cell-based; details: for IC50: cisplatin-sensitive line, 24 hours drug exposure, 3 day recovery, mean±SEM of triplicate plates; for cytotoxicity (in words): overall statement across A2780, A2780/cp70 and MCP1
Description: as §1, §2

[4] = system: Salmon DNA; experiment: DNA affinity by Isothermal Titration Calorimetry (ITC), Salmon DNA; format: binding; set-up: key to Ka Salmon DNA: *^1: No measurable binding via ITC; details: for DNA affinity (in words): DNA source not given
Description: as §2

[5] = system: Calf DNA; experiment: DNA affinity by Isothermal Titration Calorimetry (ITC), Calf DNA; format: binding; set-up: key: *^1: No measurable binding via ITC
Description: as §2

Row | melting point | Structure (SMILES) | IC50 ([1]; Homo sapiens) | RF2 [1] | IC50 ([2]; Homo sapiens, A2780/CP70) | RF1 [2] | IC50 ([3]; Homo sapiens, A2780) | Ka Salmon DNA [4] | Ka Calf DNA [5] | DNA affinity (in words) [4] | cytotoxicity (in words) [3] | cytotoxicity on cisplatin-sensitive cell line A2780 (in words) [3] | IC50 [1] | IC50 [2] | IC50 [3]
1 | 167 to 168 °C | [Br-].c1ccc2c(c1)c[n+](CCN1CCCCC1)c1ccccc21 |  |  |  |  |  |  |  |  |  |  |  |  | 
2 | 260 to 261 °C | [Br-].[Br-].c1ccc2c(c1)c[n+](CCN1CCN(CC[n+]3cc4ccccc4c4ccccc43)CC1)c1ccccc21 |  |  |  |  |  |  |  |  |  |  |  |  | 
3 | 182 to 183 °C | COc1ccc(CSCC[n+]2cc3ccccc3c3ccccc32)cc1.[Br-] |  |  |  |  |  |  |  |  |  |  |  |  | 
4 | 250 to 251 °C (dec.) | CC(C)N1CC[n+]2c1c1ccccc1c1ccccc12.[Br-] |  |  |  |  |  |  |  |  |  |  |  |  | 
5 |  | [Br-].[Br-].[Br-].c1ccc2c(c1)c1[n+](c3ccccc23)CCN1[C@H]1C[C@@H](N2CC[n+]3c2c2ccccc2c2ccccc23)C[C@@H](N2CC[n+]3c2c2ccccc2c2ccccc23)C1 [AP3-42] | 9.44 ± 0.58 µM | 1.2 | 7.29 ± 0.38 µM | 0.9 | 8.02 ± 1.14 µM |  |  |  |  |  |  |  | 
6 |  | COc1ccc(CN2CC[n+]3c2c2ccccc2c2ccccc23)cc1.[Br-] [AP3-56, 1-(4-Methoxy-benzyl)-2,3-dihydro-1H-imidazo[1,2-f]phenanthridinium bromide] | 1.06 ± 0.06 µM | 0.7 | 1.56 ± 0.06 µM | 1.0 | 1.53 ± 0.09 µM |  |  |  |  |  |  |  | 
7 |  | [Br-].c1ccc2c(c1)c1[n+](c3ccccc23)CCN1C1CC1 [AP3-80] | 5.68 ± 0.86 µM | 1.1 | 4.54 ± 0.7 µM | 0.9 | 5.07 ± 1.06 µM |  |  |  |  |  |  |  | 
8 |  | COc1ccc(N2CC[n+]3c2c2ccccc2c2ccccc23)cc1.[Br-] [AP3-83] | 0.5 ± 0.04 µM | 0.3 | 1.1 ± 0.13 µM | 0.8 | 1.45 ± 0.15 µM | 3.73 ± 1827 M^−1 (10^4) | 3.46 ± 1726 M^−1 (10^4) |  |  |  |  |  | 
9 |  | [Br-].c1ccc2c(c1)c[n+](CCN1CCCCC1)c1ccccc21 [AP4-20] | 6.3 ± 0.09 µM | 0.6 | 16.5 ± 0.8 µM | 1.7 | 9.77 ± 1.04 µM |  |  |  |  |  |  |  | 
10 |  | COc1ccc(CN2CC[n+]3c2ccc2ccccc23)cc1 [AP4-44, 3-(4-Methoxy-benzyl)-2,3-dihydro-1H-imidazo[1,2-a]quinolin-10-ylium bromide] | 11 ± 1 µM | 0.4 | 12.6 ± 0.6 µM | 0.4 | 30.9 ± 2.5 µM | *^1 | *^1 | cancel any measurable DNA affinity | much less cytotoxicity |  |  |  | 
11 |  | Br.Br.c1ccc2c(c1)c[n+](CCN1CCN(CC[n+]3cc4ccccc4c4ccccc43)CC1)c1ccccc21 [AP4-48] | 11.7 ± 1.51 µM | 0.6 | 16.8 ± 0.54 µM | 0.9 | 18.4 ± 1.23 µM |  |  |  |  |  |  |  | 
12 |  | [Br-].[Br-].[Br-].c1ccc2c(c1)c[n+](CCN1CCCN(CC[n+]3cc4ccccc4c4ccccc43)CCCN(CC[n+]3cc4ccccc4c4ccccc43)CCC1)c1ccccc21 [AP4-55] | 1.13 ± 0.12 µM | 0.5 | 1.59 ± 0.15 µM | 0.7 | 2.28 ± 0.23 µM |  |  |  | good cytotoxicity |  |  |  | 
13 |  | OCCN1CC[n+]2c1c1ccccc1c1ccccc12.[Br-] [AP6-5] | 7.8 ± 1.47 µM | 0.7 | 13.7 ± 1.5 µM | 1.2 | 11.7 ± 1.2 µM | 1.84 ± 660 M^−1 (10^4) | 1.53 ± 838.9 M^−1 (10^4) |  |  |  |  |  | 
14 |  | COc1ccc([C@@H](C)N2CC[n+]3c2c2ccccc2c2ccccc23)cc1 [AP6-96, 1-[1-(4-Methoxy-phenyl)-ethyl]-2,3-dihydro-1H-imidazo[1,2-f]phenanthridin-4-ylium bromide] | 0.53 ± 0.04 µM | 0.5 | 1.15 ± 0.07 µM | 1.1 | 1.03 ± 0.06 µM | 5.17 ± 1948 M^−1 (10^4) | 4.14 ± 2685 M^−1 (10^4) |  |  |  |  |  | 
15 |  | COC(=O)[C@H](Cc1ccccc1)N1CC[n+]2c1c1ccccc1c1ccccc12.[Br-] [AP8-56] | 20 ± 1.2 µM |  | 21.6 ± 1.8 µM |  | 35.8 ± 4.2 µM | *^1 | *^1 | does not have any measurable binding property | moderate activity | moderate cytotoxicity |  |  | 
16 |  | O=C(CN1CC[n+]2c1c1ccccc1c1ccccc12)N1CCN(C(=O)CN2CC[n+]3c2c2ccccc2c2ccccc23)CC1.[Br-].[Br-] [AP8-66] | 6.84 ± 0.89 µM | 0.6 | 15.6 ± 2.1 µM | 1.3 | 11.7 ± 1.1 µM |  |  |  |  |  |  |  | 

Row | melting point | Structure (SMILES) | IC50 ([1]; Homo sapiens) | RF2 [1] | IC50 ([2]; Homo sapiens, A2780/CP70) | RF1 [2] | IC50 ([3]; Homo sapiens, A2780) | Ka Salmon DNA [4] | Ka Calf DNA [5] | DNA affinity (in words) [4] | cytotoxicity (in words) [3] | cytotoxicity on cisplatin-sensitive cell line A2780 (in words) [3] | IC50 [1] | IC50 [2] | IC50 [3]
17 |  | [Br-].[Br-].c1ccc2c(c1)c1[n+](c3ccccc23)CCN1CCN1CCN(CCN2CC[n+]3c2c2ccccc2c2ccccc23)CC1 [AP9-5] | 3.94 ± 0.32 µM | 0.2 | 5.65 ± 0.2 µM | 0.3 | 18.3 ± 2.8 µM |  |  |  |  |  |  |  | 
18 |  | [Br-].c1ccc(CN2CC[n+]3c2c2ccccc2c2ccccc23)cc1 [AP9-45] | 1.29 ± 0.11 µM | 0.6 | 2.26 ± 0.23 µM | 1.0 | 2.32 ± 0.33 µM |  |  |  |  |  |  |  | 
19 |  | Br.Br.Br.O=C(CN1CC[n+]2c1c1ccccc1c1ccccc12)N1CCCN(C(=O)CN2CC[n+]3c2c2ccccc2c2ccccc23)CCCN(C(=O)CN2CC[n+]3c2c2ccccc2c2ccccc23)CCC1 [AP9-82] | 7.59 ± 0.32 µM | 0.5 | 4.57 ± 0.18 µM | 0.3 | 15.6 ± 2.76 µM |  |  |  |  |  |  |  | 
20 |  | CCCN1CC[n+]2c1c1ccccc1c1ccccc12 [AP10-22, 1-Propyl-2,3-dihydro-1H-imidazo[1,2-f]phenanthridin-4-ylium bromide] | 2.86 ± 0.32 µM | 0.4 | 5.11 ± 0.19 µM | 0.8 | 6.71 ± 0.86 µM | 3.11 ± 2203 M^−1 (10^4) | 3.67 ± 1310 M^−1 (10^4) |  | the least active of all the alkyl DIP derivatives |  |  |  | 
21 |  | Br.Br.Br.Br.c1ccc2c(c1)c1[n+](c3ccccc23)CCN1CC[N+]12CC[N+](CCN3CC[n+]4c3c3ccccc3c3ccccc34)(CC1)CC2 [AP11-36] | 3.07 ± 0.52 µM | 1.3 | 3.4 ± 0.23 µM | 1.5 | 2.34 ± 0.25 µM |  |  |  |  |  |  |  | 
22 |  | COc1ccc2c(c[n+](C)c3c4cc5c(cc4ccc23)OCO5)c1OC.[Cl-] [Chelerythrine, reference compound] | 2.29 ± 0.15 µM | 0.5 | 1.79 ± 0.02 µM | 0.4 | 4.63 ± 0.52 µM |  |  |  |  |  |  |  | 
23 |  | N.N.[Cl][Pt][Cl] [Cisplatin, reference compound] |  | 1.7 |  | 5.8 |  |  |  |  |  |  | 0.43 ± 0.06 µM | 1.46 ± 0.04 µM | 0.25 ± 0.02 µM
24 |  | CC[n+]1c(-c2ccccc2)c2cc(N)ccc2c2ccc(N)cc21.[Br-] [EtBr, ethidium bromide, reference compound] | 0.45 ± 0.008 µM | 1.5 | 0.658 ± 0.118 µM | 2.2 | 0.3 ± 0.039 µM | 12.9 ± 4533 M^−1 (10^4) | 9.31 ± 3353 M^−1 (10^4) |  |  |  |  |  | 
25 |  | COC(=O)CN1CC[n+]2c1c1ccccc1c1ccccc12.[Br-] [LS1-8] | 33 ± 1.6 µM | 0.7 | 54.9 ± 3.4 µM | 1.1 | 48.4 ± 8.5 µM |  |  |  | moderate activity |  |  |  | 
26 |  | C[C@H](CO)N1CC[n+]2c1c1ccccc1c1ccccc12.[Br-] [LS1-52] | 4.77 ± 0.09 µM | 1.7 | 8.43 ± 0.37 µM | 3 | 2.86 ± 0.37 µM | 1.73 ± 989.3 M^−1 (10^4) | 1.42 ± 785 M^−1 (10^4) |  |  |  |  |  | 
27 |  | COc1ccc(CN2CC[n+]3c2c2ccccc2c2cc(Br)ccc23)cc1.[Br-] [LS1-72] | 0.997 ± 0.034 µM | 1.2 | 1.67 ± 0.18 µM | 2 | 0.823 ± 0.219 µM |  |  |  |  |  |  |  | 
28 |  | [Br-].[Br-].c1ccc2c(c1)c1[n+](c3ccccc23)CCN1CCNCCN1CC[n+]2c1c1ccccc1c1ccccc12 [LS1-81] | 25.4 ± 2.9 µM | 0.8 | 15.1 ± 0.9 µM | 0.5 | 32.4 ± 2 µM |  |  |  |  |  |  |  | 
29 |  | COC(=O)[C@@H](Cc1ccccc1)N1CC[n+]2c1c1ccccc1c1ccccc12.[Br-] [LS2-6] | 34.2 ± 4.3 µM | 1.1 | 26.4 ± 3.3 µM | 0.9 | 31.2 ± 4.2 µM |  |  |  | moderate activity; also recorded: moderate cytotoxicity in the three lines | moderate cytotoxicity |  |  | 
30 |  | [Br-].c1ccc(C(CCN2CC[n+]3c2c2ccccc2c2ccccc23)c2ccccc2)cc1 [LS2-10] | 2.03 ± 0.31 µM | 1 | 1.73 ± 0.12 µM | 0.8 | 2.06 ± 0.34 µM |  |  |  |  |  |  |  | 
31 |  | CCc1ccc(N2CC[n+]3c2c2ccccc2c2ccccc23)cc1.[Br-] [LS2-11] | 1.11 ± 0.16 µM | 0.7 | 1.25 ± 0.14 µM | 0.8 | 1.54 ± 0.12 µM |  |  |  |  |  |  |  | 
